Among the test systems are ACHN renal; COLO 205 colon; HCT-116 colon; HCT-15 colon; HOP-62 NSCLC; HT29 colon; IGROV1 ovarian; LOX IMVI melanoma; MALME-3M melanoma; MDA-MB-231 breast; MDA-MB-435; MOLT-4 leukemia; NCI-H23 lung; OVCAR-4 ovarian; SF-295 CNS; SK-OV-3 ovarian; U251 CNS; MCF7 breast; PC-3 prostate.
Assay in all cases: NCI tumour cell line growth inhibition, 48 h

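Cells were grown in 96-well plates and exposed to each compound for 48 hours at five concentrations; endpoints were interpolated linearly between bracketing concentrations, or set to the highest concentration if not reached. The concentration for full growth arrest is given as TGI.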 Some results are limits rather than exact numbers.

These results are taken from PubChem BioAssay (NCI).

As for `CC(C)[Si](OC1=C(C(=O)N(C)c2ccccc2Cl)CCC1)(C(C)C)C(C)C`, the TGI in the test on ACHN renal was determined as 36.3 µM; with COLO 205 colon it was 34.3 µM; in the test with HCT-116 colon, 37 µM; with HCT-15 colon it was 30.6 µM; with HOP-62 NSCLC, 32.3 µM; in the test with HT29 colon, 29 µM. Further, the TGI with IGROV1 ovarian was 33 µM; in the test with LOX IMVI melanoma, 33.7 µM; with MALME-3M melanoma it was 34.6 µM; with MDA-MB-231 breast, 30.9 µM; in the test on MDA-MB-435, 42.7 µM; with MOLT-4 leukemia, above 100 µM. Further, the TGI in the test with NCI-H23 lung is 29.8 µM; in the test on OVCAR-4 ovarian, 38.1 µM; in the test with SF-295 CNS, 27.6 µM; in the test with SK-OV-3 ovarian it was 32.8 µM; with U251 CNS it was 31.1 µM.
As to `O=C1CC(=O)c2c(Cl)sc(Cl)c21`, the TGI in the test on ACHN renal, with COLO 205 colon, with HCT-116 colon, in the test on HCT-15 colon, with HOP-62 NSCLC and in the test on HT29 colon was above 100 µM each time. The TGI is above 100 µM in the test on IGROV1 ovarian; above 100 µM in the test on LOX IMVI melanoma; 67.2 µM in the test with MALME-3M melanoma; above 100 µM with MCF7 breast; above 100 µM in the test with MDA-MB-231 breast; above 100 µM in the test with MDA-MB-435. Besides, the TGI in the test with MOLT-4 leukemia was above 100 µM; in the test on NCI-H23 lung, above 100 µM; with OVCAR-4 ovarian it was 76.3 µM; with SF-295 CNS it was above 100 µM; with SK-OV-3 ovarian it was above 100 µM; in the test with U251 CNS, above 100 µM.
`CCCCNC(=O)Nc1c(C(N)=O)c2n(c1C(=O)OCC)CCCCC2`: the TGI in the test on ACHN renal, with COLO 205 colon, in the test with HCT-116 colon, in the test on HCT-15 colon, with HOP-62 NSCLC and in the test on HT29 colon was above 100 µM each time. Moreover, the TGI with IGROV1 ovarian was above 100 µM; in the test on LOX IMVI melanoma, above 100 µM; in the test with MCF7 breast it was above 100 µM; with MDA-MB-231 breast, 58.4 µM; with MDA-MB-435 it was above 100 µM; in the test with MOLT-4 leukemia it was above 100 µM. Moreover, the TGI with NCI-H23 lung, in the test on OVCAR-4 ovarian, with PC-3 prostate, in the test with SF-295 CNS, in the test on SK-OV-3 ovarian and with U251 CNS was above 100 µM throughout.
As for `C[C@@H](NC(=O)OC1C=CC2(CC1)C(=O)N(C)c1ccccc12)c1cccc2ccccc12` (stereo partly specified), the TGI in the test with ACHN renal, in the test on COLO 205 colon, in the test on HCT-116 colon, in the test with HCT-15 colon, in the test with HOP-62 NSCLC and in the test on HT29 colon was above 25 µM throughout. Further, the TGI in the test on IGROV1 ovarian, in the test on LOX IMVI melanoma, with MCF7 breast, in the test on MDA-MB-231 breast, with MDA-MB-435 and in the test on MOLT-4 leukemia was above 25 µM throughout. The TGI with NCI-H23 lung, with OVCAR-4 ovarian, in the test on PC-3 prostate, with SF-295 CNS, with SK-OV-3 ovarian and with U251 CNS was above 25 µM each time.
Turning to `Cc1c[nH]c(C(=O)O)c1-c1ccc2c(-c3ccccc3)nc3ccccc3n12`, the TGI is above 100 µM in the test on ACHN renal; above 100 µM in the test on COLO 205 colon; above 100 µM in the test on HCT-116 colon; 94.1 µM in the test with HCT-15 colon; 46.4 µM in the test on HOP-62 NSCLC; 70.5 µM with HT29 colon. Moreover, the TGI was 77.8 µM in the test on IGROV1 ovarian; 63 µM with LOX IMVI melanoma; above 100 µM in the test with MCF7 breast; 95 µM in the test on MDA-MB-231 breast; 78.1 µM with MDA-MB-435; 94.8 µM with MOLT-4 leukemia. The TGI with NCI-H23 lung was above 100 µM; in the test on OVCAR-4 ovarian, above 100 µM; with PC-3 prostate, above 100 µM; with SF-295 CNS it was 71.1 µM; in the test on SK-OV-3 ovarian, above 100 µM; in the test with U251 CNS it was above 100 µM.
As for `O=c1cc(CC(O)(C(F)(F)Cl)C(F)(F)Cl)[nH]n1-c1ccccc1`, the TGI in the test with ACHN renal, with COLO 205 colon, in the test with HCT-116 colon, in the test with HCT-15 colon, in the test on HOP-62 NSCLC and in the test with HT29 colon was above 100 µM each time. Moreover, the TGI with IGROV1 ovarian, in the test with LOX IMVI melanoma, with MALME-3M melanoma, with MCF7 breast, with MDA-MB-231 breast and with MDA-MB-435 was above 100 µM throughout. Besides, the TGI with MOLT-4 leukemia, in the test on NCI-H23 lung, with OVCAR-4 ovarian, in the test with SF-295 CNS, with SK-OV-3 ovarian and in the test on U251 CNS was above 100 µM throughout.
As for `OCC1OC(n2nc(-c3ccccc3)nc2-c2cnccn2)C(O)C1O` (stereo unspecified), the TGI in the test on COLO 205 colon, in the test with HCT-116 colon, in the test with HCT-15 colon, in the test with HOP-62 NSCLC, in the test on HT29 colon and with IGROV1 ovarian was above 100 µM throughout. Besides, the TGI in the test on LOX IMVI melanoma, in the test on MCF7 breast, in the test with MDA-MB-231 breast, in the test on MDA-MB-435, with MOLT-4 leukemia and in the test with NCI-H23 lung was above 100 µM each time. The TGI in the test with OVCAR-4 ovarian, with PC-3 prostate, in the test on SF-295 CNS, with SK-OV-3 ovarian and with U251 CNS was above 100 µM in each case.
On to `CC(=O)O[C@H]1CC[C@@]2(C)C(=CC[C@@H]3[C@@H]2CC[C@]2(C)C(=N/O)/C(=C/c4ccc([N+](=O)[O-])cc4)C[C@@H]32)C1`, for which the TGI is above 100 µM with ACHN renal; 10 µM in the test on COLO 205 colon; above 100 µM with HCT-116 colon; above 100 µM in the test on HCT-15 colon; above 100 µM with HOP-62 NSCLC; above 100 µM in the test on HT29 colon. Further, the TGI is 55.8 µM with IGROV1 ovarian; above 100 µM with LOX IMVI melanoma; above 100 µM in the test with MALME-3M melanoma; 50.1 µM with MDA-MB-231 breast; 29.3 µM in the test on MDA-MB-435; above 100 µM in the test on MOLT-4 leukemia. For the same molecule, the TGI in the test with NCI-H23 lung was 13.2 µM; with OVCAR-4 ovarian it was above 100 µM; with PC-3 prostate, above 100 µM; with SF-295 CNS it was 20.7 µM; with SK-OV-3 ovarian it was above 100 µM.
